IC50 data for one molecule are collected here from article PMC6429710, “Structure–activity relationships in a series of antiplasmodial thieno[2,3-b]pyridines” (Malaria Journal, 2019).

Each structure is given as a SMILES string.

One experiment addresses HsGSK-3 (Homo sapiens, UniProt P49841). Briefly: Kinase-Glo Plus assay for inhibition of HsGSK-3. Type of experiment: biochemical. The settings on record: 6 µM ATP; mean of three determinations, range in brackets. As to the method:
Kinase reaction mix was transferred to a solid white 384 well plate (NUNC, Thermo Scientific) and kinase reaction was stopped by adding 5 μL RT Kinase-Glo reagent. After 10 min luminescence was measured in an EnVision multilabel plate reader (Perkin Elmer, integration time 0.5 s/well). […] All samples were normalized to a negative control (reaction without kinase). Data points were plotted into Graphpad Prism, normalized to a DMSO control and IC50 values were calculated using nonlinear regression.
For orientation: In Kinase-Glo more light means more ATP remaining.

In another experiment the target is T1, PfGSK-3 (Plasmodium falciparum, UniProt O77344).
T1 construct: 6xHis; made in house; host or cells: Escherichia coli C41
T1 sequence (O77344 1-440): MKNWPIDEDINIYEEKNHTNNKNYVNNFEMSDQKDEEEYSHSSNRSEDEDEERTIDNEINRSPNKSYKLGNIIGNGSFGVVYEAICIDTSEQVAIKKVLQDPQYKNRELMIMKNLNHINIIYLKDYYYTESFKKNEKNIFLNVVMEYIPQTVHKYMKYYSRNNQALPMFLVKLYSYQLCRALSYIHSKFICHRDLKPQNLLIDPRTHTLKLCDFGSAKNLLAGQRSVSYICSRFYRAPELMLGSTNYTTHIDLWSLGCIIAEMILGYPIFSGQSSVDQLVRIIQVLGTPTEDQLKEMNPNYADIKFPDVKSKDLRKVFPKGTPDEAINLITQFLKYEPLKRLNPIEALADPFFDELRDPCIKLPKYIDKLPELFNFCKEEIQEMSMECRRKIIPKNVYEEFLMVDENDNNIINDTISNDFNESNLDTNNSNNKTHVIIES
Type of experiment: biochemical. The settings on record: 15 µM ATP; mean of two determinations, range in brackets; read-out: IC50 [µM], PfGSK-3 (radiometric). As to the method: Recombinant GST-PfGSK-His was expressed in Rosetta 2 (DE3) cells and purified on cobalt affinity resin as described previously. Recombinant PfGSK-3 ([…]) was assayed with 48 µM GS-1 peptide as a substrate, in 25 mM Tris–HCl pH 7.5, 10 mM MgCl2, 1 mM EGTA, 1 mM EDTA, 0.5 mg/mL BSA, 5 mM DTT, 2 µg/mL heparin, in the presence of 15 µM [γ-^32P] ATP (3000 Ci/mmol; 1 mCi/mL) (Perkin-Elmer, USA) in a final volume of 25 µL. After 30 min incubation at 30 °C, 8 µL aliquots were spotted onto 1 × 1 cm pieces of P81 phosphocellulose paper (Reaction Biology, Malvern, PA, USA) and 20 s later, the filters were washed five times (for at least 5 min each time) in a solution of 10 mL phosphoric acid/L water. Filters were rinsed in acetone and the dried filters and radioactivity was measured by Cherenkov counting. Blank values were subtracted and activities were expressed in percentage of the maximal activity, i.e. in the absence of inhibitors. Controls were performed with appropriate dilutions of dimethylsulfoxide.

Sequence of HsGSK-3 (P49841 whole entry): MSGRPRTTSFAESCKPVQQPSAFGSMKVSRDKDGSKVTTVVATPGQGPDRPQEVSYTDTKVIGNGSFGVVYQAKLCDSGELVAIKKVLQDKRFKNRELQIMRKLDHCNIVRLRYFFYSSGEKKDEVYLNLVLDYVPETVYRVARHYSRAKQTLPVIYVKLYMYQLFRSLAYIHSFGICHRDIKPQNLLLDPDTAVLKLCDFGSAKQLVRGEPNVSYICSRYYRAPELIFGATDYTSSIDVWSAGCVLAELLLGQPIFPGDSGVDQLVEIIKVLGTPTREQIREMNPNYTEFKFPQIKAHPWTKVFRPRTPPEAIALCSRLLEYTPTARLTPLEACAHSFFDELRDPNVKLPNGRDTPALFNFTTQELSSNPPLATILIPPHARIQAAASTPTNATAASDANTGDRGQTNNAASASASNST

The term IC50 denotes the concentration needed to halve the response being measured. Regarding `CN(C)CCN(C)c1ccc(-c2c(C#N)c(N)nc3sc(C(=O)c4cccc(Cl)c4)c(N)c23)c(Cl)c1` [4h], the IC50 at HsGSK-3 turned out to be 40.2 µM; at PfGSK-3, 0.184 µM.
